Where two headings read alike, the source gives them in different places.

Test in all cases: DSF 100 kinase selectivity screen;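 further: compound tested at 20 µM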
Holding throughout (assay type): binding

In experiment [1] the target is T1, ~100 representative kinases (Homo sapiens, UniProt Q9UEW8).
T1 construct: Recombinant protein kinase domains with a concentration of 2 μM
As to conditions: Protein STK39; DSF; average of three replicates. A digest of the protocol: (§1)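 Each kinase domain, at 2 μM, is mixed with 20 μM test compound and SYPRO Orange in Hepes (20 mM, pH 7.5) with 500 mM NaCl. Temperature is then raised at 3°C/min and fluorescence-monitored unfolding yields the melting temperature change, ΔTm in degrees Celsius.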

Experiment [2] concerns the target T2, ~100 representative kinases (Homo sapiens, UniProt Q8TDX7).
T2 construct: Recombinant protein kinase domains with a concentration of 2 μM
As to conditions: protein NEK7; average of three replicates. Put shortly: as §1

Experiment [3] concerns the target T3, ~100 representative kinases (Homo sapiens, UniProt P68400).
T3 construct: Recombinant protein kinase domains with a concentration of 2 μM
As to conditions: Protein CK2A1; average of three replicates. A digest of the protocol:
as §1

Experiment [4] has as its target T4, ~100 representative kinases (Homo sapiens, UniProt P49841).
T4 construct: Recombinant protein kinase domains with a concentration of 2 μM
As to conditions: protein GSK3B; average of three replicates. A digest of the protocol: as §1

Experiment [5] has as its target T5, ~100 representative kinases (Homo sapiens, UniProt P15056).
T5 construct: Recombinant protein kinase domains with a concentration of 2 μM
Put shortly:
as §1

In experiment [6] the target is T6, ~100 representative kinases (Homo sapiens, UniProt P27448).
T6 construct: Recombinant protein kinase domains with a concentration of 2 μM
T6 sequence (P27448 whole entry, the tested form may be a part): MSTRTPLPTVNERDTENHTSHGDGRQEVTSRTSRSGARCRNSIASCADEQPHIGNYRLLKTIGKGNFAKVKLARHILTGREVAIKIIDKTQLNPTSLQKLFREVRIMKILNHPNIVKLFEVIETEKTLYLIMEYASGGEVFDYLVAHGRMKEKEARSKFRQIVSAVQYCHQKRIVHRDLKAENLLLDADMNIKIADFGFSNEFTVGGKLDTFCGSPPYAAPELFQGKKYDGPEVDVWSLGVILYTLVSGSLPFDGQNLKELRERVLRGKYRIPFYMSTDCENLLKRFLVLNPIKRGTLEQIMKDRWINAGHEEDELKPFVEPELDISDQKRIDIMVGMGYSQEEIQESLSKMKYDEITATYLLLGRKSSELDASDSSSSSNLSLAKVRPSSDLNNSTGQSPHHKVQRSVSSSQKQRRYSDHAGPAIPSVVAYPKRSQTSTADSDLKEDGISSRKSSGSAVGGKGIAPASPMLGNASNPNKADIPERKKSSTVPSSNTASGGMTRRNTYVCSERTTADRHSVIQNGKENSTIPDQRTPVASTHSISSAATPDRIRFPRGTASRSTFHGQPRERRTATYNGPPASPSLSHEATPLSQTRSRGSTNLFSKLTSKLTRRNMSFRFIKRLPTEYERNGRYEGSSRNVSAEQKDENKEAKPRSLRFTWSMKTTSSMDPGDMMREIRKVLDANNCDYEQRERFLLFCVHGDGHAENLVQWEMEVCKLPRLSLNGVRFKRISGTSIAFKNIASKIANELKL
The following applies: protein MARK3; average of three replicates. Put shortly: as §1

The target in experiment [7] is T7, ~100 representative kinases (Homo sapiens, UniProt Q16566).
T7 construct: Recombinant protein kinase domains with a concentration of 2 μM
T7 sequence (Q16566 1-473): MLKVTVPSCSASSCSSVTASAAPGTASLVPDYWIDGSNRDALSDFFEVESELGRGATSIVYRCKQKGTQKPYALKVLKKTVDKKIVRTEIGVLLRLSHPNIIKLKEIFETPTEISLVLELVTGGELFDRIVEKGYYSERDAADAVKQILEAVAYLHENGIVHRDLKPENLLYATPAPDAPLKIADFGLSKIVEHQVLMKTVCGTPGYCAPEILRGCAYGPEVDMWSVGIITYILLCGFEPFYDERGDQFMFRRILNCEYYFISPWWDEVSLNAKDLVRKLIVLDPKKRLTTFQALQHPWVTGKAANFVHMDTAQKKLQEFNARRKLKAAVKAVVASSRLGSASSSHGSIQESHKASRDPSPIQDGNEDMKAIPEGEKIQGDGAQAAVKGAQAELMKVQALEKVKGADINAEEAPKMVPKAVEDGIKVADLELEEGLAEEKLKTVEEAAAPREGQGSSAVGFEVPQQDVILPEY
As to conditions: Protein CAMK4; average of three replicates. A digest of the protocol:
as §1

The target of experiment [8] is T8, ~100 representative kinases (Homo sapiens, UniProt Q12866).
T8 construct: Recombinant protein kinase domains with a concentration of 2 μM
T8 sequence (Q12866 21-999): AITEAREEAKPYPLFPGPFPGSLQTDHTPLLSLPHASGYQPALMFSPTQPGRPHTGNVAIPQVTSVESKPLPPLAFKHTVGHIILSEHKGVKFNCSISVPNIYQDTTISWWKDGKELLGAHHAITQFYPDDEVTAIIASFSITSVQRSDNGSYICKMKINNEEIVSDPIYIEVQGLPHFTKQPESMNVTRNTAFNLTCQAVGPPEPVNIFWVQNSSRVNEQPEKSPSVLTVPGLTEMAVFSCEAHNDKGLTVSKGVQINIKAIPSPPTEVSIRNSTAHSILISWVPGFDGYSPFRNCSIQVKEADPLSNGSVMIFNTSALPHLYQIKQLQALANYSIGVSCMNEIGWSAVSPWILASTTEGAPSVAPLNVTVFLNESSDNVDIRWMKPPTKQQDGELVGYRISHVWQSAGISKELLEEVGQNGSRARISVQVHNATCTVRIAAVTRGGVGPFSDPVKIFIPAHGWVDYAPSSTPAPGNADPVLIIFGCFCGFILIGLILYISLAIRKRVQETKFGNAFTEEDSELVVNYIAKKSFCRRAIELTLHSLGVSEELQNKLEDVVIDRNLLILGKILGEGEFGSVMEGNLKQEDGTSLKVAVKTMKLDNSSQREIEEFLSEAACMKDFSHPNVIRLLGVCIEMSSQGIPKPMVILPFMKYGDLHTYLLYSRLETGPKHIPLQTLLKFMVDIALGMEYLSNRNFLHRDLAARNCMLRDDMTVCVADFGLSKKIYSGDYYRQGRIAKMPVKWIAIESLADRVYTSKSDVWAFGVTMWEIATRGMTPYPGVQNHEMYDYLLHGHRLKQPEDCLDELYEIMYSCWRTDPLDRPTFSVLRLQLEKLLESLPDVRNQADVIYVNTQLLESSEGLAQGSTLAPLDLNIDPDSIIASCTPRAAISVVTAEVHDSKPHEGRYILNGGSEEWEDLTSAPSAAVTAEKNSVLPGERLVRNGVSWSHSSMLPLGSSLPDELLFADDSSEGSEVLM
As to conditions: protein MERTK; average of three replicates. A digest of the protocol:
as §1

For experiment [9], the target named is T9, ~100 representative kinases (Homo sapiens, UniProt Q99986).
T9 construct: Recombinant protein kinase domains with a concentration of 2 μM
T9 sequence (Q99986 1-396): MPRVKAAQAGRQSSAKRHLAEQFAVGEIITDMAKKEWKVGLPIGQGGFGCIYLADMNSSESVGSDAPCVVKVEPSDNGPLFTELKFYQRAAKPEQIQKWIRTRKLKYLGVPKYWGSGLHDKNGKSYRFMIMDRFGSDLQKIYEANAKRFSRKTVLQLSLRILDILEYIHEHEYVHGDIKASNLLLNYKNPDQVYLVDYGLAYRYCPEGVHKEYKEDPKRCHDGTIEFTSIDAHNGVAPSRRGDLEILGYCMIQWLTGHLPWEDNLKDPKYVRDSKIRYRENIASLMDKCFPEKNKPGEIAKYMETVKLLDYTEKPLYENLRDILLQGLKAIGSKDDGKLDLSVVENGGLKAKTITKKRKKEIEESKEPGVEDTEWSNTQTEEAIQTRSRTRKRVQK
The following applies: Protein VRK1; DSF; average of three replicates. A digest of the protocol:
as §1

Experiment [10] addresses T10, ~100 representative kinases (Homo sapiens, UniProt O75582).
T10 construct: Recombinant protein kinase domains with a concentration of 2 μM
The following applies: Protein RPS6KA5; DSF; average of three replicates. Put shortly: as §1

Where [11] appears, read: Protein BRAF, average of three replicates.

T5 sequence (P15056 whole entry, the tested form may be a part): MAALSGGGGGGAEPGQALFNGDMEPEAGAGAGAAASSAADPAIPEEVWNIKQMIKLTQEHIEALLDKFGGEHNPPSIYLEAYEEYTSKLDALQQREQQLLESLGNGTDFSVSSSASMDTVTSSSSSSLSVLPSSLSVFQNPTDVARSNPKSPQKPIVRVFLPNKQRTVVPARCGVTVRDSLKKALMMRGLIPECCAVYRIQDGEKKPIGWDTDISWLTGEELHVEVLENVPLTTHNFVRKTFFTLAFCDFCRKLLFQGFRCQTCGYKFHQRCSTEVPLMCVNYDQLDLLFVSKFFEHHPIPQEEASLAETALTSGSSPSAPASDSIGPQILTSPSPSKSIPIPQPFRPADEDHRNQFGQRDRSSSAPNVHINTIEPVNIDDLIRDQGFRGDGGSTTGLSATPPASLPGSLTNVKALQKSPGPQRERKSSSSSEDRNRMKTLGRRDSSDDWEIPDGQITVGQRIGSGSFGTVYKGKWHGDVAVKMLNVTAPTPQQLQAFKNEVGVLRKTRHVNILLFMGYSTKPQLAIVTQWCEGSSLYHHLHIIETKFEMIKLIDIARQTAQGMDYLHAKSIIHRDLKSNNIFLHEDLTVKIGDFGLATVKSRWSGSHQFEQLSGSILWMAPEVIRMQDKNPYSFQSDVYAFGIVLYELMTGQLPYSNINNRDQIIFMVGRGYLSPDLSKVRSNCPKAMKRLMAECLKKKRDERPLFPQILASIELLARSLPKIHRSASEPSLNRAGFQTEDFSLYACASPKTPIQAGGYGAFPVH
T3 sequence (P68400 whole entry, the tested form may be a part): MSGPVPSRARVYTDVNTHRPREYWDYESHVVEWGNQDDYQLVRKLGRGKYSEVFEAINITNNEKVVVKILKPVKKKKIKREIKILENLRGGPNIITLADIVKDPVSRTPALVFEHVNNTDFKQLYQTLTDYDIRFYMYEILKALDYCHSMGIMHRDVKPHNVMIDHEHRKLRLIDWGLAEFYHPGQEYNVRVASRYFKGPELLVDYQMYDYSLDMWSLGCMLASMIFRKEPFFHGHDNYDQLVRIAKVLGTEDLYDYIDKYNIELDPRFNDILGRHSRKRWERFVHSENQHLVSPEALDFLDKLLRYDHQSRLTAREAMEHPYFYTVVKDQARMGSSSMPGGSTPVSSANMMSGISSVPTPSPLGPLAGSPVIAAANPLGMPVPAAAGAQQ
T4 sequence (P49841 whole entry, the tested form may be a part): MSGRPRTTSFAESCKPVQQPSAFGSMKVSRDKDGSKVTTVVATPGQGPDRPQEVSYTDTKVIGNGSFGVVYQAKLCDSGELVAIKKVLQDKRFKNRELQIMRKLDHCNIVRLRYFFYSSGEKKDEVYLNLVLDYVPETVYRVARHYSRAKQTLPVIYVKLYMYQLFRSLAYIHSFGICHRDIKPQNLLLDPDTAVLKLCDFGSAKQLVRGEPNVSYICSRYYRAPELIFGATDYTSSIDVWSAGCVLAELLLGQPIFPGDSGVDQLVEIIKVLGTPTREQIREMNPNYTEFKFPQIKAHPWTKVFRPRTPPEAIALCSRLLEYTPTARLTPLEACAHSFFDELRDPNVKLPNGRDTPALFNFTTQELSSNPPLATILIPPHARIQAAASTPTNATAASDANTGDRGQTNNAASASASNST
T2 sequence (Q8TDX7 whole entry, the tested form may be a part): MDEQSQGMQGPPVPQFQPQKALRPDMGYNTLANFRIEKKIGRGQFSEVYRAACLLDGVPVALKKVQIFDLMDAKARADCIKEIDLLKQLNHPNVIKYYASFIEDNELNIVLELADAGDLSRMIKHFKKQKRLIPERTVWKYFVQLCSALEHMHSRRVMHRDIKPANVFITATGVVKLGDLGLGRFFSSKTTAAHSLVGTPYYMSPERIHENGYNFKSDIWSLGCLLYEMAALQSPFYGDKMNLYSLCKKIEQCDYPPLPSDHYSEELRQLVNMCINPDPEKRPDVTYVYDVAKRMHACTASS
T10 sequence (O75582 whole entry, the tested form may be a part): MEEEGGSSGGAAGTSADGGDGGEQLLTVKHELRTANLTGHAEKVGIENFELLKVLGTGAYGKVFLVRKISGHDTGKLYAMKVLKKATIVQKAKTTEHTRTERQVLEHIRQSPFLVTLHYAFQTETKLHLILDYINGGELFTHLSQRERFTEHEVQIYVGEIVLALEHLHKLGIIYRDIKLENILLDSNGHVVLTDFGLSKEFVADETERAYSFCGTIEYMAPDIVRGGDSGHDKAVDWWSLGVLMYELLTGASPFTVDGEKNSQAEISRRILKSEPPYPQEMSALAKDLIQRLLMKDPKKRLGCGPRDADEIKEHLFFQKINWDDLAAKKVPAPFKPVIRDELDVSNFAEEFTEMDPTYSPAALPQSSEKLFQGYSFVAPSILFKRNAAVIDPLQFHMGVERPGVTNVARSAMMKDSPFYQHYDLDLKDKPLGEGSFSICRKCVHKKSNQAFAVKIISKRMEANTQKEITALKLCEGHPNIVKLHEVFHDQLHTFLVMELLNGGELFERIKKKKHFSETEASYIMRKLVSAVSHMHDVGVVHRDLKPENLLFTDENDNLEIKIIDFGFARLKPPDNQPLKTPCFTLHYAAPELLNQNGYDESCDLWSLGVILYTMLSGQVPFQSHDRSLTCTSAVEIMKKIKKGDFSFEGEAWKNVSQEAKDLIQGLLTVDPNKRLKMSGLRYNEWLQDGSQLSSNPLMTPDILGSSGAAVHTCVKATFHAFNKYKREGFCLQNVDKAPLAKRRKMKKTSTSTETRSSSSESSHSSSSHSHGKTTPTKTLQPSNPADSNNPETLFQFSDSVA

Take `O=C(Nc1cccc(-c2c[nH]c3ncnc(N4CCOCC4)c23)c1)c1cccn(-c2ccc(F)cc2)c1=O` [Compound 4]: the dTm was 4.19 K in experiment [1]; -0.10 K in experiment [2]; 1.35 K in [3]; 5.10 K in experiment [4]; 8.03 K in [5] (setting [11]); 4.45 K in experiment [6]. Further, the dTm was 1.59 K in [7], 5.74 K in experiment [8], 1.12 K in experiment [9] and -0.28 K in [10].

For the compound `Cc1ccc(C(=O)Nc2ccc(CN3CCN(C)CC3)c(C(F)(F)F)c2)cc1C#Cc1cnc2[nH]ncc2c1` [GZD-824, reference compound], the dTm in [1] is given as 4.29 K; in experiment [2], 1.00 K; in experiment [3] it was -1.14 K; in experiment [4], 4.71 K; in [5], 38.00 K; in experiment [6], 3.47 K. In addition, the dTm is given as 0.32 K in [7], 5.77 K in [8], 0.0366 K in experiment [9] and 8.48 K in experiment [10].

Take `O=C(Nc1ccccc1)C1(C(=O)Nc2cccc(-c3c[nH]c4ncnc(N5CCOCC5)c34)c2)CC1` [Compound 12]: the dTm in experiment [1] is on record as 2.09 K; in [2] it was -0.19 K; in experiment [3], 0.00 K; in [4] it was 5.87 K; in [5] (setting [11]) it was 6.85 K; in [6], 4.89 K. Moreover, the dTm in experiment [7] is listed as 1.57 K; in experiment [8], 2.64 K; in experiment [9], 0.69 K; in experiment [10], 6.52 K.

As for `Cc1ccc(C(=O)Nc2ccc(CN3CCN(C)CC3)c(C(F)(F)F)c2)cc1C#Cc1c[nH]c2ncnc(N3CCOCC3)c12` [Compound 1], the dTm is on record as 3.69 K in experiment [1]; 1.05 K in [2]; 2.53 K in [3]; 1.72 K in [4]; 35.22 K in [5] (setting [11]); 1.49 K in experiment [6]. Moreover, the dTm in experiment [7] is on record as 1.39 K; in [8] it was 3.23 K; in [9], -0.0464 K; in experiment [10], 1.58 K.

`Cc1cc(F)ccc1NC(=O)C1(C(=O)Nc2cccc(-c3c[nH]c4ncnc(N5CCOCC5)c34)c2)CC1` [Compound 24]: the dTm in experiment [1] came out at 0.71 K; in [2], 0.20 K; in experiment [3], 0.65 K; in experiment [4] it was 4.64 K; in experiment [5] (setting [11]) it was 8.44 K; in experiment [6], 4.53 K. Further, the dTm in experiment [7] was 0.42 K; in experiment [8] it was 0.66 K; in [9], 0.44 K; in experiment [10], -1.10 K.

In the case of `O=C(Nc1cc(F)cc(Br)c1)C1(C(=O)Nc2cccc(-c3c[nH]c4ncnc(N5CCOCC5)c34)c2)CC1` [Compound 27], the dTm in experiment [1] is listed as 0.00 K; in [2], -0.08 K; in experiment [3], -1.92 K; in [4], 3.16 K; in experiment [5] (setting [11]) it was 6.66 K; in experiment [6] it was 3.05 K. The dTm in [7] was 0.92 K; in experiment [8], 0.27 K; in [9], 1.05 K; in [10] it was 0.67 K.

Regarding `O=C(Nc1ccc(Cl)cc1)C1(C(=O)Nc2cccc(-c3c[nH]c4ncnc(N5CCOCC5)c34)c2)CC1` [Compound 13], the dTm in experiment [1] came to 2.32 K; in experiment [2], 1.06 K; in experiment [3] it was 0.00 K; in experiment [4], 7.55 K; in experiment [5] (setting [11]), 10.34 K; in experiment [6] it was 7.72 K. In addition, the dTm in [7] is on record as 3.78 K; in [8], 3.45 K; in experiment [9], 2.20 K; in experiment [10], 5.83 K.

For `O=C(Nc1cccc(-c2c[nH]c3ncnc(N4CCOCC4)c23)c1)C1(C(=O)Nc2ccc(F)c(F)c2)CC1` [Compound 17], the dTm in experiment [1] is 1.80 K; in [2] it was 1.01 K; in experiment [3], -0.81 K; in experiment [4], 7.13 K; in [5] (setting [11]), 7.80 K; in experiment [6], 5.81 K. Further, the dTm in experiment [7] was 1.60 K; in experiment [8], 1.34 K; in [9], 1.14 K; in experiment [10] it was 6.14 K.

In the case of `O=C(Nc1cccc(-c2c[nH]c3ncnc(N4CCOCC4)c23)c1)C1(C(=O)Nc2cc(Br)c(F)cc2F)CC1` [Compound 25], the dTm in experiment [1] is recorded as -0.03 K; in experiment [2], 0.26 K; in [3] it was -3.68 K; in [4], 1.43 K; in experiment [5] (setting [11]), 11.56 K; in experiment [6], 3.00 K. In addition, the dTm in [7] worked out at 1.53 K; in experiment [8] it was 1.84 K; in experiment [9], 1.24 K; in experiment [10] it was 0.35 K.

`CC(C)(C)c1cc(NC(=O)Nc2cccc(-c3c[nH]c4ncnc(N5CCOCC5)c34)c2)n(-c2ccc3ncccc3c2)n1` [Compound 28]: the dTm turned out to be 7.55 K in [1]; 2.34 K in experiment [2]; 0.00 K in experiment [3]; 13.25 K in experiment [4]; 32.83 K in experiment [5] (setting [11]); 5.67 K in [6]. Also, the dTm amounted to 3.69 K in experiment [7], 5.15 K in [8], 1.63 K in experiment [9] and 16.84 K in [10].

Turning to `CC(C)(C)c1cccc(NC(=O)C2(C(=O)Nc3cccc(-c4c[nH]c5ncnc(N6CCOCC6)c45)c3)CC2)c1` [Compound 22], the dTm was 3.92 K in experiment [1]; 0.18 K in experiment [2]; -1.17 K in [3]; 6.13 K in experiment [4]; 15.10 K in experiment [5] (setting [11]); 4.89 K in experiment [6]. The dTm in [7] came out at 1.51 K; in experiment [8] it was 2.25 K; in experiment [9] it was 0.81 K; in [10], 1.50 K.

(Values after paper PMC12136037, “Type II kinase inhibitors that target Parkinson’s disease–associated LRRK2” (Science Advances, 2025).)
